Measurements as given in the kinase profiling compilation of Christmann-Franck et al. (2016).
Values joined by “and” are separate entries in the source; they are usually repeats but may differ in a detail not shown here. Equal entries are not always repeated.

Key:
Assay in all cases: radiometric filter-binding kinase assay, Kinase HotSpot
Details in all cases: compound 0.5 µM; ATP 10 µM
[1] = target: ACVRL1 (human) (UniProt P37023)
[2] = target: AKT1 (human) (UniProt P31749)
[3] = target: ALK (human) (UniProt Q9UM73)
[4] = target: BLK (human) (UniProt P51451)
[5] = target: BRSK1 (human) (UniProt Q8TDC3)
[6] = target: BRSK2 (human) (UniProt Q8IWQ3)
[7] = target: CDC42BPA (human) (UniProt Q5VT25)
[8] = target: CDK3 CCNE1 (human) (UniProt Q00526+P24864)
[9] = target: CDK6 CCND3 (human) (UniProt P30281+Q00534)
[10] = target: CSNK1A1 (human) (UniProt P48729)
[11] = target: DDR2 (human) (UniProt Q16832)
[12] = target: DYRK1A (human) (UniProt Q13627)
[13] = target: EPHA1 (human) (UniProt P21709)
[14] = target: EPHB2 (human) (UniProt P29323)
[15] = target: EPHB3 (human) (UniProt P54753)
[16] = target: FGFR4 (human) (UniProt P22455)
[17] = target: FYN (human) (UniProt P06241)
[18] = target: GSK3B (human) (UniProt P49841)
[19] = target: IRAK1 (human) (UniProt P51617)
[20] = target: LRRK2 (human) (UniProt Q5S007)
[21] = target: LTK (human) (UniProt P29376)
[22] = target: LYN (human) (UniProt P07948)
[23] = target: MAP2K2 (human) (UniProt P36507)
[24] = target: MAP3K10 (human) (UniProt Q02779)
[25] = target: MAP3K11 (human) (UniProt Q16584)
[26] = target: MAP4K4 (human) (UniProt O95819)
[27] = target: MAPK14 (human) (UniProt Q16539)
[28] = target: MAPKAPK5 (human) (UniProt Q8IW41)
[29] = target: MARK4 (human) (UniProt Q96L34)
[30] = target: NEK1 (human) (UniProt Q96PY6)
[31] = target: NTRK1 (human) (UniProt P04629)
[32] = target: PASK (human) (UniProt Q96RG2)
[33] = target: PDGFRA (human) (UniProt P16234)
[34] = target: PDPK1 (human) (UniProt O15530)
[35] = target: PIM1 (human) (UniProt P11309)
[36] = target: PKN1 (human) (UniProt Q16512)
[37] = target: PRKD3 (human) (UniProt O94806)
[38] = target: PRKG2 (human) (UniProt Q13237)
[39] = target: RPS6KA5 KD2 (human) (UniProt O75582)
[40] = target: RPS6KB1 (human) (UniProt P23443)
[41] = target: STK3 (human) (UniProt Q13188)
[42] = target: WNK3 (human) (UniProt Q9BYP7)

Chain of LYN (human) (P07948 whole entry, looked up): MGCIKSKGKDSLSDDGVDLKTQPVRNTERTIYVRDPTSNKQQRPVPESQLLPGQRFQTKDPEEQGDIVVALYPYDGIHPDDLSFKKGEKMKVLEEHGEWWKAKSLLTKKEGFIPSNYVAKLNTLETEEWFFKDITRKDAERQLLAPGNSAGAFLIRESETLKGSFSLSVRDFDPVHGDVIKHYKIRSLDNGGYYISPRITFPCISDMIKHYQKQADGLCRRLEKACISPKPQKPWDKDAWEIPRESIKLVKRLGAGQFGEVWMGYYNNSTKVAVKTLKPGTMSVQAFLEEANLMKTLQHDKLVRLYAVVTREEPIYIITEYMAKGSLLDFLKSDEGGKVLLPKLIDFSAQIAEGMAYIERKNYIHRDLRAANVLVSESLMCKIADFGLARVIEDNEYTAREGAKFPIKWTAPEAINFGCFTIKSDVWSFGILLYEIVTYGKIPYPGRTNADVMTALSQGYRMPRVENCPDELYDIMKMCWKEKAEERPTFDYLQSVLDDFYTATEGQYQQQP
Chain of PRKG2 (human) (Q13237 whole entry, looked up): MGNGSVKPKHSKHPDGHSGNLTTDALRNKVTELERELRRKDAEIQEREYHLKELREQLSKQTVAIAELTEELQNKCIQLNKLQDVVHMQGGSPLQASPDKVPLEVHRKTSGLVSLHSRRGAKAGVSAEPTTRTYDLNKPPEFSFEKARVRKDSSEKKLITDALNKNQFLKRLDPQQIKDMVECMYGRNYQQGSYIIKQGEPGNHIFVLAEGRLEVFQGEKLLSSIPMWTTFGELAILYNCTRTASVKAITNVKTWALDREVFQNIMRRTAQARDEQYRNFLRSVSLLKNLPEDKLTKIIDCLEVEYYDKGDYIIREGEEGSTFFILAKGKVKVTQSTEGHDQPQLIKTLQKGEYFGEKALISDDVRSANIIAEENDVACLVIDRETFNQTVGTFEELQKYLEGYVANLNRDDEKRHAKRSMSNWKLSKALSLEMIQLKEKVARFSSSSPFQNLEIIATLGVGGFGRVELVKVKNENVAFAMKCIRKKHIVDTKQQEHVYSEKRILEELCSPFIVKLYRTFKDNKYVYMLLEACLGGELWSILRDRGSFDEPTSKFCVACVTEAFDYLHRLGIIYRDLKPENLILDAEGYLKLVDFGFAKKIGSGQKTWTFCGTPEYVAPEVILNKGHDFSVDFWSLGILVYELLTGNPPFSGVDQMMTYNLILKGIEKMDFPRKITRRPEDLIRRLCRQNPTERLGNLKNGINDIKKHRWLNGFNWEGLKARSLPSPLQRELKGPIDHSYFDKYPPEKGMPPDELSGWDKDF
Chain of BRSK2 (human) (Q8IWQ3 whole entry, looked up): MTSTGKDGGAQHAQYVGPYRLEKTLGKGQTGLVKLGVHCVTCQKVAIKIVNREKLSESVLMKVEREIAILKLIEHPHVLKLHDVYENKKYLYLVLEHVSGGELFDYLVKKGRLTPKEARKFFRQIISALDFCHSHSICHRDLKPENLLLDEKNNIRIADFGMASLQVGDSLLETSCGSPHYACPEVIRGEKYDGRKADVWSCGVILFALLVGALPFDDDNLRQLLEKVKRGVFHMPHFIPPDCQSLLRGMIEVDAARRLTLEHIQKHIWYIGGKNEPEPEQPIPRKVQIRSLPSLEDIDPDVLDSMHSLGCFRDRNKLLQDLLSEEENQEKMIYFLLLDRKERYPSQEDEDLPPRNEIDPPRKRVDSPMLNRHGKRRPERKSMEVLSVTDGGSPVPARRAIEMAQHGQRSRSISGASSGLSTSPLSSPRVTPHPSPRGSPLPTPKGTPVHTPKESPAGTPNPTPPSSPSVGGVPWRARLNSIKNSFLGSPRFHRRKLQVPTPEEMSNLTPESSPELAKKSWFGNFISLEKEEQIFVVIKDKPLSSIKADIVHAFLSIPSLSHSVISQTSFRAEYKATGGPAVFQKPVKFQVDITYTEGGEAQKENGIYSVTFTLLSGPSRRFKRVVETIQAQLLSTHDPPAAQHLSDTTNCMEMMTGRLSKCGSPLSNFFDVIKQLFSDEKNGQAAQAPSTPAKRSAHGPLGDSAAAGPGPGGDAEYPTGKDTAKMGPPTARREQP
Chain of PASK (human) (Q96RG2 whole entry, looked up): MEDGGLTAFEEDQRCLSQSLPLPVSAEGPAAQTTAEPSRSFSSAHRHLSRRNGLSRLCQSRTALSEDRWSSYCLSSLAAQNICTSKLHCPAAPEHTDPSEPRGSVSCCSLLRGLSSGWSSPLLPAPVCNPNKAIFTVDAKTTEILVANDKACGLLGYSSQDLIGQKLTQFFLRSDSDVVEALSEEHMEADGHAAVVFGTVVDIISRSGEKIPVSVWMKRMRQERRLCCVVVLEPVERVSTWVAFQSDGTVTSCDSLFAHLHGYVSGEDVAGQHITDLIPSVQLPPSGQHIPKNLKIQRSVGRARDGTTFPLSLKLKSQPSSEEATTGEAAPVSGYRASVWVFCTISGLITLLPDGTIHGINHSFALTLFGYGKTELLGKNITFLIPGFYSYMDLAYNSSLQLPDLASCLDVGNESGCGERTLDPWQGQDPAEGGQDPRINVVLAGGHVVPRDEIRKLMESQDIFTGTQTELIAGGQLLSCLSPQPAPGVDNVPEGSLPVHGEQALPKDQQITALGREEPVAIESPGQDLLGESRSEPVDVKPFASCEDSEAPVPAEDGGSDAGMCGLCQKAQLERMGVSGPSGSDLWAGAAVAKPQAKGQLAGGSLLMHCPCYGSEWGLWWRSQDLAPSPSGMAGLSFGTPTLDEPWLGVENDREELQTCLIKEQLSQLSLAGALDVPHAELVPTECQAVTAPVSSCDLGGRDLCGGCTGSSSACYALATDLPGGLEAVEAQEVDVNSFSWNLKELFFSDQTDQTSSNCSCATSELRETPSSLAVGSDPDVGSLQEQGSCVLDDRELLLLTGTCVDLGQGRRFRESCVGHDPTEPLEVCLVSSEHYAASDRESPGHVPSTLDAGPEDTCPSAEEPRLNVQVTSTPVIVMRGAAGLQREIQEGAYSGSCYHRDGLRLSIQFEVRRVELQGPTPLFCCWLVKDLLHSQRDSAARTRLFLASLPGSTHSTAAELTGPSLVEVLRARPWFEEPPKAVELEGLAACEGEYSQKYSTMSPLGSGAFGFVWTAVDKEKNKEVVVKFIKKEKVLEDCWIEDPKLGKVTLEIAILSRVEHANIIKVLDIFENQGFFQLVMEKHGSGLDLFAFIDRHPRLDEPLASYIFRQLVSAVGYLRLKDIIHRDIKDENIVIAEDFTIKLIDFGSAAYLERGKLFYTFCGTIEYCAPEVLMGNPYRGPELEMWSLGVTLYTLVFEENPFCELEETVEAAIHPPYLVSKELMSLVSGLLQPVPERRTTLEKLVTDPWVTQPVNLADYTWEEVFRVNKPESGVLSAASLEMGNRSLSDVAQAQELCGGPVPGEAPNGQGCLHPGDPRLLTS
Chain of NTRK1 (human) (P04629 whole entry, looked up): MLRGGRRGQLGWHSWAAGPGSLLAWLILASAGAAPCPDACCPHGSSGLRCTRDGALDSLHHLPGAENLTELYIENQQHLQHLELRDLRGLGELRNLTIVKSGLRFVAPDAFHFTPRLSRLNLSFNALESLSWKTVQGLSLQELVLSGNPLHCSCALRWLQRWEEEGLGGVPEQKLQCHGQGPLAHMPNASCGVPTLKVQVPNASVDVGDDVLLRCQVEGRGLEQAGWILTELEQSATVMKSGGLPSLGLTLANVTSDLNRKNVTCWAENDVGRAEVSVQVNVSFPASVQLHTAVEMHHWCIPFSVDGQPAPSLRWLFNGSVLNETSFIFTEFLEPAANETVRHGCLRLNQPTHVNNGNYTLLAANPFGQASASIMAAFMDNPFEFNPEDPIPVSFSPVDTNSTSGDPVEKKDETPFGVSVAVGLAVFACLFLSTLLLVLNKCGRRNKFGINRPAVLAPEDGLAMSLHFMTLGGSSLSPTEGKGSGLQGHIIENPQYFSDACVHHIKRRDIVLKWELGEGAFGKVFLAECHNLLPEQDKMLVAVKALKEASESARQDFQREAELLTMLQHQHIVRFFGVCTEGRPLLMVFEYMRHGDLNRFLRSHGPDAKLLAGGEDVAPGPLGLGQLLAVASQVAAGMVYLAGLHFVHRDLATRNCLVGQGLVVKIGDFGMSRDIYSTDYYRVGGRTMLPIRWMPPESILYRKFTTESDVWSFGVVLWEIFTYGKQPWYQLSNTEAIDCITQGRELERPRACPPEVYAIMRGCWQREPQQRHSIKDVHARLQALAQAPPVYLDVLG
Chain of PDPK1 (human) (O15530 whole entry, looked up): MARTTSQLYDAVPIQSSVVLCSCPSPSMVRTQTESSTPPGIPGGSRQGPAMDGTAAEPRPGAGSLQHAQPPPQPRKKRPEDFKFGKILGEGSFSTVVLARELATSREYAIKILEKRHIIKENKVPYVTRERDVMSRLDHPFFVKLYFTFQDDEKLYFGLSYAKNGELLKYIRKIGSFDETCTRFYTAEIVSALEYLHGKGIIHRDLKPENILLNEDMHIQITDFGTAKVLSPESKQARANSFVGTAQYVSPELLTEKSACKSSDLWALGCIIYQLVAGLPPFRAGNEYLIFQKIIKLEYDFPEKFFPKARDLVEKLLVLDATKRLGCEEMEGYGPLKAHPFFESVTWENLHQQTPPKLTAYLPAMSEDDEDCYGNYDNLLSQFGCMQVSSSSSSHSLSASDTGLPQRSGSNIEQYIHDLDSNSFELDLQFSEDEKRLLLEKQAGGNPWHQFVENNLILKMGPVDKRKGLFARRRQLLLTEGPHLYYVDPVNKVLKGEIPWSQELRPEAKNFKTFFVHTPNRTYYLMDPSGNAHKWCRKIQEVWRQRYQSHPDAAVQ
Chain of PIM1 (human) (P11309 whole entry, looked up): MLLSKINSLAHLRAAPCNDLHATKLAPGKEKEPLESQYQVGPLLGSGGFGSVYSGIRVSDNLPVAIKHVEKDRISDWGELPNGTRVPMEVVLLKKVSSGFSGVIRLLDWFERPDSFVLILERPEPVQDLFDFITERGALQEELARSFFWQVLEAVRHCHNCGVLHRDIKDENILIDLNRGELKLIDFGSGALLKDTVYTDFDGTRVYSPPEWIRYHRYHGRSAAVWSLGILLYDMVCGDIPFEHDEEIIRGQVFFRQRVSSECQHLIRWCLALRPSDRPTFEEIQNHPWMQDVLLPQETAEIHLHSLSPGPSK

In the case of `Cc1nc2cc3nc(-c4cccs4)cnc3cc2n1C`, the residual activity [1] is reported as 109%, the residual activity [2] is reported as 114% and the residual activity [3] is reported as 99.8%. It also gave a residual activity [4] of 99.8%, a residual activity [5] of 98.7% and a residual activity [6] of 98%. The residual activity [7] was 109%, the residual activity [8] was 93.6% and the residual activity [9] was 87.8%. The residual activity [10] was 96.7%, the residual activity [11] was 108% and the residual activity [12] was 99.9%. The residual activity [13] was 87.1%, the residual activity [14] was 101% and the residual activity [15] was 101%. It also gave a residual activity [16] of 96.3%, a residual activity [17] of 107% and a residual activity [18] of 109%. For the same molecule, the residual activity [19] was 113%, the residual activity [20] was 106% and the residual activity [21] was 95.2%. For the same molecule, the residual activity [22] was 117% and 97.8%, the residual activity [23] was 77.5% and the residual activity [24] was 101%. For the same molecule, the residual activity [25] was 91.1%, the residual activity [26] was 84.5% and the residual activity [27] was 97.5%. It also gave a residual activity [28] of 100%, a residual activity [29] of 105% and a residual activity [30] of 94%. It also gave a residual activity [31] of 113%, a residual activity [32] of 110% and a residual activity [33] of 23.8%. The residual activity [34] was 106%, the residual activity [35] was 103% and the residual activity [36] was 96.5%. The residual activity [37] was 97.1%, the residual activity [38] was 87.7% and the residual activity [39] was 109%. The residual activity [40] was 95%, the residual activity [41] was 97.1% and the residual activity [42] was 96.9%.
